Where two headings read alike, the source gives them in different places.
Molecular target: T1, indoleamine 2,3-dioxygenase (IDO) (Homo sapiens, UniProt P14902)
T1 construct: media containing IFNγ (#285-IF/CF, R&D Systems) at a final concentration of 25 ng/mL; endogenous in cells; host or cells: HeLa (ATCC CCL-2), induced with IFN-gamma
Experiment: HeLa cell-based indoleamine 2,3-dioxygenase (IDO) assay
Details: HeLa cells with IFNγ 25 ng/mL, 48 hour incubation, kynurenine production
Experimental: Assessment of Inhibitor Activity in HeLa Cell-Based Indoleamine 2,3-Dioxygenase (IDO) Assay.
HeLa (ATCCR CCL-2) cells were obtained from the ATCC® and cultured in Dulbecco's Modified Eagle Medium supplemented with 4.5 g/L glucose, […] L-glutamine and […] (#10-013-CV, Corning), 2 mM L-alanyl-L-glutamine dipeptide (#35050-061, Gibco), 100U/mL penicillin, 100 µg/mL streptomycin (#SV30010, HyClone) and 10% fetal bovine serum (#SH30071.03 HyClone). Cells were maintained in a humidified incubator at 37° C. in 5% CO2.
IDO activity was assessed as a function of kynurenine production as follows: HeLa cells were seeded in a 96-well culture plate at a density of 5,000 cells/well and allowed to equilibrate overnight. After 24 hours, the media was aspirated and replaced with media containing IFNγ (#285-IF/CF, R&D Systems) at a final concentration of 25 ng/mL. A serial dilution of each test compound was added to the cells in a total volume of 200 μL of culture medium. After a further 48 hour incubation, 170 μL of supernatant was transferred from each well to a fresh 96-well plate. 12.1 μL of 6. IN trichloroacetic acid (#T0699, Sigma-Aldrich) was added to each well and mixed, followed by incubation at 65° C. for 20 minutes to hydrolyze N-formylkynurenine, the product of indoleamine 2,3-dioxygenase, to kynurenine. The reaction mixture was then centrifuged for 10 mins at 500×g to sediment the precipitate. 100 μL of the supernatant was transferred from each well to a fresh 96-well plate. 100 μl of 2% (w/v) p-dimethylaminobenzaldehyde (#15647-7, Sigma-Aldrich) in acetic acid (#A6283, Sigma-Aldrich) was added to each well mixed and incubated at room temperature for 20 mins. Kynurenine concentrations were determined by measuring absorbance at 480 nm and calibrating against an L-kynurenine (#K8625, Sigma-Aldrich) standard curve using a SPECTRAMAX® M2e microplate reader (Molecular Devices). The percentage activity at each inhibitor concentration was determined and IC50 values assessed using nonlinear regression.

[1] = read-out: IDO Hela IC50 potency class (A < 50, B < 250, C < 2000)

T1 sequence (P14902 whole entry): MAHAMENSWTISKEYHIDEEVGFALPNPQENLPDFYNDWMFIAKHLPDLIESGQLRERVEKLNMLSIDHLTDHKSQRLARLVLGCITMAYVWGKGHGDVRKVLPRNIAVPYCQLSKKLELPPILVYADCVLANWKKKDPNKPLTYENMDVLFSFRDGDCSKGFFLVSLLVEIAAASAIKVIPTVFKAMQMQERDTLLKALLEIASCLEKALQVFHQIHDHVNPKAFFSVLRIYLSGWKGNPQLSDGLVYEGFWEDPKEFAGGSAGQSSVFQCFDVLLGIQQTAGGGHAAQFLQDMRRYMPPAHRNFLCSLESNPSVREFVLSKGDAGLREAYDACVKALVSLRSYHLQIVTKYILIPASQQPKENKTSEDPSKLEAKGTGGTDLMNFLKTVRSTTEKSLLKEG

| Structure (SMILES) | IC50 (read-out: IDO Hela IC50) [nM] | IC50 [1] [nM] |
| --- | --- | --- |
| CCOc1ncc(Nc2cc(C(CC)CC(=O)O)ccc2-c2ccc(OC)c(F)c2)cn1 (single isomer, unassigned) [Example 49] | 30 | – |
| CCOc1ncc(Nc2cc([C@H](CC)CC(=O)O)ccc2-c2ccc(OC)cc2F)cn1 (single isomer, unassigned) [Example 53] | 30 | – |
| CC[C@H](CC(=O)O)c1ccc(-c2nnc(C)s2)c(Nc2ccc(Cl)cc2)c1 (single isomer, unassigned) [Example 22] | 30 | – |
| CC[C@H](CC(=O)O)c1ccc(-c2cnn(C)c2)c(Nc2cnc(C)nc2)c1 (single isomer, unassigned) [Example 12] | ≥ 1000 | 250 to 2000 |
| CCOc1ncc(Nc2cc([C@H](CC)CC(=O)O)ccc2-c2ncc(C)cn2)cn1 (single isomer, unassigned) [Example 69] | 110 | – |
| CC[C@H](CC(=O)O)c1ccc(-c2cnn(C)c2)c(Nc2ccccn2)c1 (single isomer, unassigned) [Example 15] | ≥ 1000 | 250 to 2000 |
| CCOc1ncc(Nc2cc([C@H](CC)CC(=O)O)ccc2-c2cnn(Cc3ccc(OC)cc3)c2)cn1 (single isomer, unassigned) [Example 47] | 10 | – |
| CC[C@H](CC(=O)O)c1ccc(-c2cn[nH]c2)c(Nc2ccc(Cl)cc2)c1 (single isomer, unassigned) [Example 18] | 70 | – |
| COC[C@H](CC(=O)O)c1ccc(-c2cncnc2)c(Nc2ccc(C#N)cc2)c1 (single isomer, unassigned) [Example 43] | ≥ 1000 | 250 to 2000 |
| CCOc1ncc(Nc2cc([C@H](CC)CC(=O)O)ccc2-c2ccc(Cl)cc2F)cn1 (single isomer, unassigned) [Example 70] | 230 | – |
| CC[C@H](CC(=O)O)c1ccc(-c2cnn(C)c2)c(Nc2ccc(Cl)cn2)c1 (single isomer, unassigned) [Example 6] | 470 | – |
| CC[C@H](CC(=O)O)c1ccc(-c2cnn(C)c2)c(Nc2ccc(C#N)cc2)c1 (single isomer, unassigned) [Example 5] | 110 | – |
| CCc1ncc(Nc2cc([C@H](CC)CC(=O)O)ccc2C2CCN(C(=O)OC(C)(C)C)CC2)cn1 (single isomer, unassigned) [Example 29] | 130 | – |
| CCOc1ncc(Nc2cc([C@H](CC)CC(=O)O)ccc2C2CCN(C(=O)OC(C)(C)C)CC2)cn1 (single isomer, unassigned) [Example 25] | 20 | – |
| CCOc1ncc(Nc2cc([C@H](CC)CC(=O)O)ccc2-c2nc3ccccc3s2)cn1 (single isomer, unassigned) [Example 76] | 950 | – |
| CC[C@H](CC(=O)O)c1ccc(-c2cnn(C(C)C)c2)c(NC(=O)Nc2ccc(Cl)cc2F)c1 (single isomer, unassigned) [Example 24] | ≥ 1000 | 250 to 2000 |
| CCc1ncc(Nc2cc([C@@H](CC)CC(=O)O)ccc2-c2sc(C)nc2C)cn1 (single isomer, unassigned) [Example 58] | 390 | – |
| CC[C@H](CC(=O)O)c1ccc(-c2cnn(C)c2)c(Nc2ccc(Cl)c(F)c2)c1 (single isomer, unassigned) [Example 9] | 20 | – |
| CCOc1ncc(Nc2cc([C@H](CC)CC(=O)O)ccc2-c2c[nH]c3cnccc23)cn1 (single isomer, unassigned) [Example 67] | ≥ 1000 | 250 to 2000 |
| CCOc1ncc(Nc2cc([C@H](CC)CC(=O)O)ccc2-c2c(C)nn(C)c2C)cn1 (single isomer, unassigned) [Example 81] | 600 | – |
| CC[C@H](CC(=O)O)c1ccc(-c2cnn(C)c2)c(NC(=O)Nc2ccc(Cl)cc2F)c1 (single isomer, unassigned) [Example 23] | ≥ 1000 | 250 to 2000 |
| COC[C@@H](CC(=O)O)c1ccc(-c2cnn(C)c2)c(Nc2ccc(C#N)cc2)c1 (single isomer, unassigned) [Example 33, 3-(3-((4-cyanophenyl)amino)-4-(1-methyl-1H-pyrazol-4-yl)phenyl)-4-methoxybutanoic Acid] | ≥ 1000 | 250 to 2000 |
| COC[C@H](CC(=O)O)c1ccc(-c2ccc3c(c2)CCO3)c(Nc2ccc(C#N)cc2)c1 (single isomer, unassigned) [Example 40] | 90 | – |
| CCOc1ncc(Nc2cc([C@H](CC)CC(=O)O)ccc2-c2cnn(CCN3CCOCC3)c2)cn1 (single isomer, unassigned) [Example 55] | ≥ 1000 | 250 to 2000 |

| Structure (SMILES) | IC50 (read-out: IDO Hela IC50) [nM] | IC50 [1] [nM] |
| --- | --- | --- |
| CCOc1ncc(Nc2cc([C@H](CC)CC(=O)O)ccc2-c2ccc3nc(C)oc3c2)cn1 (single isomer, unassigned) [Example 65] | ≥ 1000 | 250 to 2000 |
| CCOc1ncc(Nc2cc([C@H](CC)CC(=O)O)ccc2-c2ccn3ccnc3c2)cn1 (single isomer, unassigned) [Example 86] | ≥ 1000 | 250 to 2000 |
| CC[C@H](CC(=O)O)c1ccc(C2CCN(C(=O)OC(C)(C)C)CC2)c(Nc2cnc(C)nc2)c1 (single isomer, unassigned) [Example 27] | 820 | – |
| CCOc1ncc(Nc2cc([C@H](CC)CC(=O)O)ccc2-c2ccc(Cl)cc2)cn1 (single isomer, unassigned) [Example 71] | 110 | – |
| CCOc1ncc(Nc2cc([C@H](CC)CC(=O)O)ccc2-c2cnc(OCC)nc2)cn1 (single isomer, unassigned) [Example 64] | ≥ 1000 | 250 to 2000 |
| COC[C@@H](CC(=O)O)c1ccc(-c2cnn(Cc3ccc(OC)cc3)c2)c(Nc2ccc(C#N)cc2)c1 (single isomer, unassigned) [Example 36] | 30 | – |
| CCOc1ncc(Nc2cc([C@H](CC)CC(=O)O)ccc2C2=CC3CCC(C2)N3C(=O)OC(C)(C)C)cn1 (single isomer, unassigned) [Example 56] | 390 | – |
| CC[C@H](CC(=O)O)c1ccc(-c2cnn(C)c2)c(Nc2cccc(F)c2)c1 (single isomer, unassigned) [Example 8] | 380 | – |
| CCOc1ncc(Nc2cc([C@H](CC)CC(=O)O)ccc2-c2ccc(C#N)c(OC)c2)cn1 (single isomer, unassigned) [Example 80] | ≥ 1000 | 250 to 2000 |
| CCOc1ncc(Nc2cc([C@H](CC)CC(=O)O)ccc2-c2ccc(Cl)c(F)c2)cn1 (single isomer, unassigned) [Example 72] | 210 | – |
| COC[C@H](CC(=O)O)c1ccc(-c2cnn(Cc3ccccc3)c2)c(Nc2ccc(C#N)cc2)c1 (single isomer, unassigned) [Example 44] | 450 | – |
| CCOc1ncc(Nc2cc([C@H](CC)CC(=O)O)ccc2-c2ncc(F)cn2)cn1 (single isomer, unassigned) [Example 63] | 700 | – |
| COC[C@@H](CC(=O)O)c1ccc(-c2sc(C)nc2C)c(Nc2ccc(C#N)cc2)c1 (single isomer, unassigned) [Example 59] | 220 | – |
| CC[C@H](CC(=O)O)c1ccc(-c2c(C)noc2C)c(Nc2ccc(Cl)cc2)c1 (single isomer, unassigned) [Example 17] | 10 | – |
| CC[C@H](CC(=O)O)c1ccc(-c2cnn(C)c2)c(Nc2ccc(C)cc2)c1 (single isomer, unassigned) [Example 10] | 40 | – |
| CCOc1ncc(Nc2cc([C@H](CC)CC(=O)O)ccc2-c2ccn3nccc3n2)cn1 (single isomer, unassigned) [Example 79] | 400 | – |
| CC[C@H](CC(=O)O)c1ccc(-c2cnn(C)c2)c(Nc2ccc(C(F)(F)F)cc2)c1 (single isomer, unassigned) [Example 14] | 40 | – |
| CCOc1ncc(Nc2cc([C@H](CC)CC(=O)O)ccc2-c2sc(C)nc2C)cn1 (single isomer, unassigned) [Example 61] | 10 | – |
| CCOc1ncc(Nc2cc([C@H](CC)CC(=O)O)ccc2-c2cccc3[nH]ncc23)cn1 (single isomer, unassigned) [Example 50] | ≥ 1000 | 250 to 2000 |
| CCc1ncc(Nc2cc([C@H](CC)CC(=O)O)ccc2-c2cnn(C)c2)cn1 (single isomer, unassigned) [Example 13] | ≥ 1000 | 250 to 2000 |
| CCOc1ncc(Nc2cc([C@H](CC)CC(=O)O)ccc2-c2csc(-c3ccccc3)n2)cn1 (single isomer, unassigned) [Example 82] | 110 | – |
| COC[C@H](CC(=O)O)c1ccc(-c2ccoc2)c(Nc2ccc(C#N)cc2)c1 (single isomer, unassigned) [Example 39] | 20 | – |
| COC[C@@H](CC(=O)O)c1ccc(-c2ccoc2)c(Nc2ccc(C#N)cc2)c1 (single isomer, unassigned) [Example 35] | 10 | – |

Reference: US10959986B2, “Inhibitors of indoleamine 2,3-dioxygenase and methods of their use” (BRISTOL-MYERS SQUIBB COMPANY, priority 2018, dated 2021)
